Measurements from US7524980B2, “Vitamin D3 lactam derivative” (Teijin Pharma Limited, priority 2003, dated 2009).

Test system: HL-60 cell
Assay: Vitamin D3 antagonist effect: suppression of HL-60 cell differentiation (NBT-reducing activity) induced by 1α,25-dihydroxyvitamin D3
Assay type: cell-based
Conditions: simultaneous treatment with 1α,25-dihydroxyvitamin D3 1×10^−8 M; compound 1×10^−7 to 3×10^−6 M; 4 days; read-out: IC50 (suppression of NBT-reducing activity induction)
From the text: (1) HL-60 cell line which had been purchased from a cell bank (Japanese Cancer Research Resource Bank, Cell No: JCRB0085) was used. The cell line was stored as a frozen storage stock to prevent cell characteristic changes attributable to successive cultivations. Prior to the initiation of experiments, the cells were defrosted and successive culturing was stared. For the experiments, cells whose successive culturing was from one month to about a half year were used. The successive culturing was carried out by centrifugally collecting cells which were in the state of suspension culture, and diluting the collected cell concentrate with a fresh culture medium at a ratio of about 1/100 (1-2×10^4 cells/ml). As the culture medium, an RPMI-1640 medium containing 10% fetal bovine serum was used.
(2) The cells which were under successive culturing in the above process (1) were centrifugally collected, and they were dispersed in a culture medium at the cell concentration of 2×10^4 cells/ml. […]
(3) As the parameter of differentiation inducing effect on HL-60 cells, the induction of nitro blue tetrazolium (henceforth, NBT)-reducing activity was used. The NBT-reducing activity was determined according to the following procedure. […] After air drying, it was stained with Kernechrot, and the ratio of the positive cells of NBT reduction activity was determined under an optical microscope. […]

C=C1C(=CC=C2CCCC3(C)C2CCC3C(C)CC2CC(C)(O)C(=O)N2CCc2ccccc2)CC(O)CC1O (stereo not drawn) [Compound No. 61a, 1α,25-dihydroxyvitamin D3-26,23-lactam-N-(2-phenethyl)]
IC50: < 100 nM
